# Measured values as given in PMC7530726, “A structure-based computational workflow to predict liability and binding modes of small molecules to hERG” (Scientific Reports, 2020).
# Several values for one entry are separate records, joined by “and”; a condition that tells them apart may be missing. Equal values may be shown once. Read-outs that look alike come from different tables or passages of the source.
# Columns and labels:
# [1] = tested on: serotonin 5-hydroxytryptamine receptor 4 (5HT-4); details: cited from earlier work
# [2] = molecular target: T1, hERG Y652A (Homo sapiens, UniProt Q12809, Y652A); assay: in vitro; details: pH 7.4, Percent current inhibition hERG Y652A
# [3] = molecular target: T2, hERG F656A (Homo sapiens, UniProt Q12809, F656A); assay: in vitro
# [4] = tested on: hERG; details: cited from earlier work
# [5] = molecular target: T3, WT hERG (Homo sapiens, UniProt Q12809); assay: Predictor hERG Fluorescence Polarization Assay kit; format: binding
# T3 construct: purchased Life Technologies
# Protocol: All measurements were made according to the manufacturer’s instruction. Fluorescence polarization was measured using PerkinElmer EnVision® Multilabel reader (PerkinElmer, Woodbridge, ON, Canada).
# [6] = molecular target: T4, hERG WT (Homo sapiens, UniProt Q12809); details: 1 µM
# [7] = molecular target: T1, hERG Y652A; details: 1 µM
# [8] = molecular target: T2, hERG F656A; details: 1 µM
# [9] = molecular target: T4, hERG WT; assay: in vitro; details: Percent current inhibition hERG WT
# [10] = molecular target: T4, hERG WT
# [11] = molecular target: T1, hERG Y652A; assay: Whole-cell patch clamp (automated), HEK cells stably expressing hERGY652A
# [12] = molecular target: T2, hERG F656A; assay: Whole-cell patch clamp (manual, 135 mM K+), HEK cells stably expressing hERGF656A
# [13] = pH 7.4, Percent current inhibition hERG F656A
# [14] = pH 7.4, reduction in the inhibition of F656A mutant when compared to the WT
# [15] = read-out: hERG IC50 from literature, Patch clamp HEK293 cells @ 23 ± 1 °C, ref Toga et al.
# [16] = read-out: hERG IC50 from literature, Patch clamp HEK293 cells @ 34 ± 1 °C, ref Wu et al.
# T4 sequence (Q12809 whole entry): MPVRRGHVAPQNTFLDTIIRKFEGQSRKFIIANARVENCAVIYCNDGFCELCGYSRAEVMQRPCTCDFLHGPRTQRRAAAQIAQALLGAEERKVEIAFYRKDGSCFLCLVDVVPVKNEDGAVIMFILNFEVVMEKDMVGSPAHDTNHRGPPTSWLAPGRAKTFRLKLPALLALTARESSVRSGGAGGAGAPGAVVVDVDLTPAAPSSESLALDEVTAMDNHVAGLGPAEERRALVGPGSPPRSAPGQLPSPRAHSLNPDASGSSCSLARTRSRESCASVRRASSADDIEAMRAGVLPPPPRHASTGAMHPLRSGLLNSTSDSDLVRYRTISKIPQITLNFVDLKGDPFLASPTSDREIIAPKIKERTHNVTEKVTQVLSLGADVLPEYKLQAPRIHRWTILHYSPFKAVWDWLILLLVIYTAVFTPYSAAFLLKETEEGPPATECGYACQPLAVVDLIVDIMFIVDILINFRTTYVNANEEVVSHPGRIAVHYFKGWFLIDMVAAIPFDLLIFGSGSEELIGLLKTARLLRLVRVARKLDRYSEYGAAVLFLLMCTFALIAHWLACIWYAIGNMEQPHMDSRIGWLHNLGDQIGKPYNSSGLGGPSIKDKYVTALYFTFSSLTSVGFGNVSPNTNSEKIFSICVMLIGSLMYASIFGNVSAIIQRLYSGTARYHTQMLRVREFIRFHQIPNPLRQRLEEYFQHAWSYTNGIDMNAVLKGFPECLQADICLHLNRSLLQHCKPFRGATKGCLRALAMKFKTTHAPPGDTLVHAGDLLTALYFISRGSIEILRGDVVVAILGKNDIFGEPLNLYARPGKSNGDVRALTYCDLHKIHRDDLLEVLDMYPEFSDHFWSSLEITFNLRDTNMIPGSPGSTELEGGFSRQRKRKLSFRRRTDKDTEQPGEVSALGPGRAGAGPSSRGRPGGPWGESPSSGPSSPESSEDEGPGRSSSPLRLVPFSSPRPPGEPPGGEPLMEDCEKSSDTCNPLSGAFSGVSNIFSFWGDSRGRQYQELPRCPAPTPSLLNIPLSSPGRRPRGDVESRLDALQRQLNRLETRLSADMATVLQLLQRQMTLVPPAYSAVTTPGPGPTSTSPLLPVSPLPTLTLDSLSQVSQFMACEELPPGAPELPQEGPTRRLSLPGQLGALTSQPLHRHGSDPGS
# T2 sequence (Q12809 whole entry F656A): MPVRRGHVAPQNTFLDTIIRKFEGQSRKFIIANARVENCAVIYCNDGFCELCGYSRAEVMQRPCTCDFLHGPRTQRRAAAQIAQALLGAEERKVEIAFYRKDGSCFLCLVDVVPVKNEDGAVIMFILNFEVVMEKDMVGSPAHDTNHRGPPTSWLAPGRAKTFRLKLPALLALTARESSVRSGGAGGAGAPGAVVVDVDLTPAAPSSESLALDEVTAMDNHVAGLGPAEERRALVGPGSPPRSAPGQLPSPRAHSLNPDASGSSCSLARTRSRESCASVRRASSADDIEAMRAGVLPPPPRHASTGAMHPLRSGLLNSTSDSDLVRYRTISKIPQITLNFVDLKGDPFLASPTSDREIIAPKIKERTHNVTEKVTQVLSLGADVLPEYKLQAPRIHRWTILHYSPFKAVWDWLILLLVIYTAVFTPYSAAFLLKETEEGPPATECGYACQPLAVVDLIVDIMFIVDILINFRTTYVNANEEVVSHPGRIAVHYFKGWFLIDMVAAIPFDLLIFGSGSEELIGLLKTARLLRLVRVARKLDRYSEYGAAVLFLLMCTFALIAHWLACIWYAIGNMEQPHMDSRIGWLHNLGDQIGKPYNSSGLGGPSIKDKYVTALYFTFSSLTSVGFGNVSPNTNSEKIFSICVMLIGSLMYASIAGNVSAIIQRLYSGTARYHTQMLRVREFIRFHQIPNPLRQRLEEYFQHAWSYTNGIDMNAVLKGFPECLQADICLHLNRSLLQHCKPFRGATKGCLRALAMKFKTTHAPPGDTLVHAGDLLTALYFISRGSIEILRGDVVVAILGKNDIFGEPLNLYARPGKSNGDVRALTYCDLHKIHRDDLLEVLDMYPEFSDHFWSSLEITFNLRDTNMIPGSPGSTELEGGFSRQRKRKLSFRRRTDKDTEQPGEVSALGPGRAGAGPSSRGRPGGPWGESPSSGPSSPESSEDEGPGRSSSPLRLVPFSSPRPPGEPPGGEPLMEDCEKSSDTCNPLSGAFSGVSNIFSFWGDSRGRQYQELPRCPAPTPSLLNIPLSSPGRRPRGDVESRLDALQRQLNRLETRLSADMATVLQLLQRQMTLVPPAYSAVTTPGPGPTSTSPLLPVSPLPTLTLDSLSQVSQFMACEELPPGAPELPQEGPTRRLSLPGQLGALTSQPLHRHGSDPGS
# T1 sequence (Q12809 whole entry Y652A): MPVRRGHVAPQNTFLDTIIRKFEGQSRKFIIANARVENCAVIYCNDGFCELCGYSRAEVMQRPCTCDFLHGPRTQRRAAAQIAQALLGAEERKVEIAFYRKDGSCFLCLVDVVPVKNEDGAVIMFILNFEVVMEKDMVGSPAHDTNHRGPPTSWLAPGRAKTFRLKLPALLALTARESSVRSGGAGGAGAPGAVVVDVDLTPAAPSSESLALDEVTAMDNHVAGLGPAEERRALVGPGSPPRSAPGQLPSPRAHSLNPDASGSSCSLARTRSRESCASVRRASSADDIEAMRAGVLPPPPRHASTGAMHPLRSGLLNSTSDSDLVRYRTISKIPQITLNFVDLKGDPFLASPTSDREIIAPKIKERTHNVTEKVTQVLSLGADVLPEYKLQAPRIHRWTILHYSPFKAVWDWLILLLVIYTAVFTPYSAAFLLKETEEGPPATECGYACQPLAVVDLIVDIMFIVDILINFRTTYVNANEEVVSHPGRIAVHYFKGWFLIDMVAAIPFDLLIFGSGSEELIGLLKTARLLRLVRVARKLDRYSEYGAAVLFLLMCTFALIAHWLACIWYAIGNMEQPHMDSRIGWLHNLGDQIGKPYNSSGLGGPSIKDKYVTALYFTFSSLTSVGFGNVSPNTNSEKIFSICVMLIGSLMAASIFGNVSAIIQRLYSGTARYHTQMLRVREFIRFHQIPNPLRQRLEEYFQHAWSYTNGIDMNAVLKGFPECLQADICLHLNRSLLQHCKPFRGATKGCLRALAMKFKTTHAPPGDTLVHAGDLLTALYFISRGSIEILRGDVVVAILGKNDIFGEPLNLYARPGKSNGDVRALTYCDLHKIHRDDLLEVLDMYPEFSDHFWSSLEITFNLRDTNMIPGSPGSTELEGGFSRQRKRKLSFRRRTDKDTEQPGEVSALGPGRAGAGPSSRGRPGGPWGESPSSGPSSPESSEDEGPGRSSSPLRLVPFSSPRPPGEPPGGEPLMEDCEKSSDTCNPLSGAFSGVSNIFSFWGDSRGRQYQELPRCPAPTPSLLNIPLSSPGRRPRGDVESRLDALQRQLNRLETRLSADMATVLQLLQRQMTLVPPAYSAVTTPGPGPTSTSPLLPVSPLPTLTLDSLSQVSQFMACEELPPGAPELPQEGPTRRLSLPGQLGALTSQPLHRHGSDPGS
# T3 sequence (Q12809 whole entry): as the sequence (Q12809 whole entry) above
compound,measurement,setting,value
COc1cc(N)c(Cl)cc1C(=O)NC1CCN(CCCOc2ccc(F)cc2)CC1OC (centres unmarked) [Cisapride],binding affinity to 5HT-4 (agonist),[1],~ 14 nM
same,inhibition at 3 µM,[2],39.1%
same,inhibition at 5 µM,[2],57.7%
same,inhibition at 10 µM,[2],91.7%
same,inhibition at 3 µM,[3]; [13],38.7%
same,inhibition at 5 µM,[3]; [13],59.6%
same,inhibition at 10 µM,[3]; [13],75.5%
same,inhibition at 1 µM,[3]; [14],~80%
Cc1cccc(C)c1NC(=O)C1CCCCN1C (centres unmarked) [Mepivacaine],IC50,[4]; read-out: hERG IC50,> 100 µM and 156 µM
same,IC50,[4]; [16],156 µM
CCOc1cc(N)c(Cl)cc1C(=O)NCC1CN(Cc2ccc(F)cc2)CCO1 (centres unmarked) [Mosapride],affinity to WT hERG in FP assay,[5],much weaker affinity
same,Percent current inhibition hERG WT,[6],very small percentage
same,Percent current inhibition hERG Y652A,[7],very small percentage
same,Percent current inhibition hERG F656A,[8],very small percentage
same,inhibition at 1 µM,[9],13.1%
same,inhibition at 3 µM,[9],33.5%
same,inhibition at 5 µM,[9],45%
same,inhibition at 10 µM,[9],68.7%
same,inhibition at 30 µM,[9],92.5%
same,inhibition at 1 µM,[2],7.13%
same,inhibition at 3 µM,[2],13.6%
same,inhibition at 5 µM,[2],20.6%
same,inhibition at 10 µM,[2],31.3 ± 3.65%
same,inhibition at 30 µM,[2],66.8%
same,inhibition at 1 µM,[3]; [13],11%
same,inhibition at 3 µM,[3]; [13],12.4%
same,inhibition at 5 µM,[3]; [13],16%
same,inhibition at 10 µM,[3]; [13],25.7%
same,inhibition at 30 µM,[3]; [13],34.4%
same,inhibition at 100 µM,[3]; [13],40.2%
same,inhibition at 1 µM,[3]; [14],2%
same,IC50,[4]; [15],4.8 µM
same,IC50,[10],5.36 µM
same,IC50,[11],17.4 µM
Cc1cccc(C)c1NC(=O)CC12CCCN1CCC2 [Pilsicainide],IC50,[4]; read-out: hERG IC50,< 30 µM and ~20 µM
same,IC50,[4]; [16],20.4 µM
COc1ccccc1OCC(O)CN1CCN(CC(=O)Nc2c(C)cccc2C)CC1 (centres unmarked) [Ranolazine],IC50,"[4]; read-out: hERG IC50 from literature, Patch clamp HEK293 cells @ 37 ± 1 °C, ref Du et al.",[…]
same,Percent current inhibition hERG WT,[10]; 100 µM,97.36% ± 0.89
same,inhibition at 10 µM,"[10]; human, HEK cells stably expressing hERG WT, Percent current inhibition hERG WT, 10 µM",42.3%
same,inhibition at 30 µM,"[10]; human, HEK cells stably expressing hERG WT, Percent current inhibition hERG WT, 30 µM",77%
same,inhibition at 100 µM,"[10]; human, HEK cells stably expressing hERG WT, Percent current inhibition hERG WT, 100 µM",~90%
same,inhibition at 300 µM,"[10]; human, HEK cells stably expressing hERG WT, Percent current inhibition hERG WT, 300 µM",100%
same,inhibition at 500 µM,"[10]; human, HEK cells stably expressing hERG WT, Percent current inhibition hERG WT, 500 µM",100%
same,Percent current inhibition hERG Y652A,[11]; 100 µM,24.62% ± 2.64
same,inhibition at 10 µM,"[11]; human, HEK cells stably expressing hERG Y652A, pH 7.4, Percent current inhibition hERG Y652A, 10 µM",2.4%
same,inhibition at 30 µM,"[11]; human, HEK cells stably expressing hERG Y652A, pH 7.4, Percent current inhibition hERG Y652A, 30 µM",10.1%
same,inhibition at 100 µM,"[11]; human, HEK cells stably expressing hERG Y652A, pH 7.4, Percent current inhibition hERG Y652A, 100 µM",25%
same,inhibition at 300 µM,"[11]; human, HEK cells stably expressing hERG Y652A, pH 7.4, Percent current inhibition hERG Y652A, 300 µM",64%
same,inhibition at 500 µM,"[11]; human, HEK cells stably expressing hERG Y652A, pH 7.4, Percent current inhibition hERG Y652A, 500 µM",84.6%
same,Percent current inhibition hERG F656A,[12]; 100 µM,21.37% ± 7.80
same,inhibition at 10 µM,"[12]; human, HEK cells stably expressing hERG F656A, pH 7.4, Percent current inhibition hERG F656A, 10 µM",4.39%
same,inhibition at 30 µM,"[12]; human, HEK cells stably expressing hERG F656A, pH 7.4, Percent current inhibition hERG F656A, 30 µM",10.9%
same,inhibition at 300 µM,"[12]; human, HEK cells stably expressing hERG F656A, pH 7.4, Percent current inhibition hERG F656A, 300 µM",37.7%
same,inhibition at 500 µM,"[12]; human, HEK cells stably expressing hERG F656A, pH 7.4, Percent current inhibition hERG F656A, 500 µM",49.6%
